Data reported in publication PMC3914206.

Experiments:
panel of 442 kinases [1] = target: T1, panel of 442 kinases (Homo sapiens, UniProt Q9P2K8, S808G); assay type: binding; set-up: KINOMEscan: ABL1(F317L)-phosphorylated / KINOMEscan: ABL1(H396P)-nonphosphorylated / KINOMEscan: ABL1(H396P)-phosphorylated / KINOMEscan: ABL1(M351T)-phosphorylated / KINOMEscan: ABL1(T315I)-phosphorylated / KINOMEscan: ABL1-nonphosphorylated / KINOMEscan: ABL1-phosphorylated / KINOMEscan: ACVR2A / KINOMEscan: ACVR2B / KINOMEscan: ADCK3 / KINOMEscan: ADCK4 / KINOMEscan: AKT1 / KINOMEscan: AKT3 / KINOMEscan: ALK / KINOMEscan: ARK5 / KINOMEscan: AURKA / KINOMEscan: AURKC / KINOMEscan: BIKE / KINOMEscan: BMPR1A / KINOMEscan: BMPR1B / KINOMEscan: BMX / KINOMEscan: BRK / KINOMEscan: BRSK1 / KINOMEscan: BRSK2 / KINOMEscan: CAMK1 / KINOMEscan: CAMK1D / KINOMEscan: CAMK1G / KINOMEscan: CAMK2A / KINOMEscan: CAMK2B / KINOMEscan: AAK1 / KINOMEscan: CAMK2D / KINOMEscan: CAMK2G / KINOMEscan: ABL1(F317I)-nonphosphorylated / KINOMEscan: ABL1(F317I)-phosphorylated / KINOMEscan: ABL1(F317L)-nonphosphorylated: unit: % Ctrl; details: Compound Concentration 10 µM
T1 construct: purchased KINOMEscan
T1 sequence (Q9P2K8 whole entry S808G): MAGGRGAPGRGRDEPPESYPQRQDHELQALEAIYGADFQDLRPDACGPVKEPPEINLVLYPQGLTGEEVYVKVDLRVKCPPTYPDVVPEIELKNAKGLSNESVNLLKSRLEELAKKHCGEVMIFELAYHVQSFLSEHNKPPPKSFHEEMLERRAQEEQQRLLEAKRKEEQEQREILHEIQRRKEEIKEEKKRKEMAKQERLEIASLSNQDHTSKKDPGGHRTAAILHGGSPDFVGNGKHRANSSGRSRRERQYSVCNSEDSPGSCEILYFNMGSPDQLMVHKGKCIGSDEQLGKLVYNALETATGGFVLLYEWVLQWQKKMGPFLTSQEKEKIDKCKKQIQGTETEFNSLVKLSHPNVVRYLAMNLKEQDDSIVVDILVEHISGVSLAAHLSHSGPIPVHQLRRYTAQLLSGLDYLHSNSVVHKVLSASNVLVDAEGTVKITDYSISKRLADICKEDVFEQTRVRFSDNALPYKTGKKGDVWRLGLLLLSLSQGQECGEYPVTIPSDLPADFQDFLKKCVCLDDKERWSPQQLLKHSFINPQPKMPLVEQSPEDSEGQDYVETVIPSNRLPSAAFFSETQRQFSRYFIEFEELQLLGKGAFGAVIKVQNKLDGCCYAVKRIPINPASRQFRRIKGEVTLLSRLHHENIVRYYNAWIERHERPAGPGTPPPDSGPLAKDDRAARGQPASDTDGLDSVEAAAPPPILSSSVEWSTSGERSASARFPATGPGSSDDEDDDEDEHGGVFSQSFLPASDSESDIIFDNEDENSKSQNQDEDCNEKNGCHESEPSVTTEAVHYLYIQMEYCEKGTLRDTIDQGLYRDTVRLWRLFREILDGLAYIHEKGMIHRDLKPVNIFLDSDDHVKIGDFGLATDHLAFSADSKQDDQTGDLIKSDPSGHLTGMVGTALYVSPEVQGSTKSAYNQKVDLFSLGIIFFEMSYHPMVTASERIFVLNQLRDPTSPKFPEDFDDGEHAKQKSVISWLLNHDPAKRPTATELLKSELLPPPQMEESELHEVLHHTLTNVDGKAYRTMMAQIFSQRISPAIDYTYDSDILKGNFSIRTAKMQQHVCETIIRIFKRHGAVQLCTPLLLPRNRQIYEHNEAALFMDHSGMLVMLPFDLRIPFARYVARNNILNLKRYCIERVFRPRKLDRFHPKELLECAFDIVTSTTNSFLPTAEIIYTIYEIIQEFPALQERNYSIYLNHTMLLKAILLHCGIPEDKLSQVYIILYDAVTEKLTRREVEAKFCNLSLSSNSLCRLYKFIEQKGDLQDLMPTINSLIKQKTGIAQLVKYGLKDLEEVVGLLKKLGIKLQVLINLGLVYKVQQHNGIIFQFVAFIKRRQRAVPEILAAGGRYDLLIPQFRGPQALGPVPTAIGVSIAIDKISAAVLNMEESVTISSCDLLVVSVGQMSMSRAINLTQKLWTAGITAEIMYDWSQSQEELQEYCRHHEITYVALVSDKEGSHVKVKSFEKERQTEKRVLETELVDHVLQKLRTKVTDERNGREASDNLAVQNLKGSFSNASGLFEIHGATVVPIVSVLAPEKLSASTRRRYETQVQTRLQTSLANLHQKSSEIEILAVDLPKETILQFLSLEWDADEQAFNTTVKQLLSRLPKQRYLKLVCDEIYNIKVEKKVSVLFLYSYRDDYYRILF
From the text: (§1) We assessed the selectivity of members of this scaffold using the KINOMEscan methodology across a near comprehensive panel of 442 kinases [[18,27]].

panel of 442 kinases [2] = target: T2, panel of 442 kinases (Homo sapiens, UniProt P51813); assay type: binding; set-up: KINOMEscan: ABL1(F317L)-phosphorylated / KINOMEscan: ABL1(H396P)-nonphosphorylated / KINOMEscan: ABL1(H396P)-phosphorylated / KINOMEscan: ABL1(M351T)-phosphorylated / KINOMEscan: ABL1(T315I)-phosphorylated / KINOMEscan: ABL1-nonphosphorylated / KINOMEscan: ABL1-phosphorylated / KINOMEscan: ACVR2A / KINOMEscan: ACVR2B / KINOMEscan: ADCK3 / KINOMEscan: ADCK4 / KINOMEscan: AKT1 / KINOMEscan: AKT3 / KINOMEscan: ALK / KINOMEscan: ARK5 / KINOMEscan: AURKA / KINOMEscan: AURKC / KINOMEscan: BIKE / KINOMEscan: BMPR1A / KINOMEscan: BMPR1B / KINOMEscan: BMX / KINOMEscan: BRK / KINOMEscan: BRSK1 / KINOMEscan: BRSK2 / KINOMEscan: CAMK1 / KINOMEscan: CAMK1D / KINOMEscan: CAMK1G / KINOMEscan: CAMK2A / KINOMEscan: CAMK2B / KINOMEscan: AAK1 / KINOMEscan: CAMK2D / KINOMEscan: CAMK2G / KINOMEscan: ABL1(F317I)-nonphosphorylated / KINOMEscan: ABL1(F317I)-phosphorylated / KINOMEscan: ABL1(F317L)-nonphosphorylated: unit: % Ctrl; details: Compound Concentration 10 µM
T2 construct: purchased KINOMEscan
T2 sequence (P51813 1-675): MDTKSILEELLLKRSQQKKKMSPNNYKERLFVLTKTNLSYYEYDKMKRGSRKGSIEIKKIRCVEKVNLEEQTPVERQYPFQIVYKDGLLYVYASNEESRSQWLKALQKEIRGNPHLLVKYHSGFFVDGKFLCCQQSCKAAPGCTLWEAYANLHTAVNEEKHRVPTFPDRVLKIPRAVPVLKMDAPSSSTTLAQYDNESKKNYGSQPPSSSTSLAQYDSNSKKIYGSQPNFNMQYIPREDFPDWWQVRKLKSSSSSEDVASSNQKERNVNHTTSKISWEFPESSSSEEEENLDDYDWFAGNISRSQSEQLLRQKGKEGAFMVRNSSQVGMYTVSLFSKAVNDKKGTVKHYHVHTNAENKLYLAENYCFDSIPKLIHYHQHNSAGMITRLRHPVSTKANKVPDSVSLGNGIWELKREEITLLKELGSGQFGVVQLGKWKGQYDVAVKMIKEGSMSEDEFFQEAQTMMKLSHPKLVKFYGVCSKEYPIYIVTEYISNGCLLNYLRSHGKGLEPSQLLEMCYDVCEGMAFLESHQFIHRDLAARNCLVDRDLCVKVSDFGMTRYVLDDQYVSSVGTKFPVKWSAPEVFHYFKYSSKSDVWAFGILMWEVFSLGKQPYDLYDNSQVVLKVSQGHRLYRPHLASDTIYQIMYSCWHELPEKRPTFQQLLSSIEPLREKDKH
From the text: as §1

| Compound | KINOMEscan: GCN2(Kin.Dom.2,S808G) (panel of 442 kinases [1]) | KINOMEscan: BMX (panel of 442 kinases [2]) |
| --- | --- | --- |
| COc1cc(C(=O)N2CCC(N3CCN(C)CC3)CC2)ccc1Nc1ncc2c(n1)N(C1CCCC1)c1ccccc1C(=O)N2C [Compound 25, 11-cyclopentyl-2-((2-methoxy-4-(4-(4-methylpiperazin-1-yl)piperidine-1-carbonyl)phenyl)amino)-5-methyl-5H-benzo[e]pyrimido[5,4-b][1,4]diazepin-6(11H)-one] | 100 | 91 |
| COc1cc(C(=O)N2CCC(N3CCN(C)CC3)CC2)ccc1Nc1ncc2c(n1)N1CCc3cccc(c31)C(=O)N2C [Compound 24] | 79 | 71 |
| COc1cc(C(=O)N2CCC(N3CCN(C)CC3)CC2)ccc1Nc1ncc2c(n1)N(C)c1ccccc1C(=O)N2C [15 (LRRK2-IN-1)] | 95 | 87 |
| CCOc1cc(C(=O)N2CCC(N3CCN(C)CC3)CC2)ccc1Nc1ncc2c(n1)N(C1CCCC1)c1ccccc1C(=O)N2C [Compound 26] | 95 | 100 |
